Source: PubChem BioAssay (NCI)
Where “and” joins values, the source holds several entries; their conditions need not be identical. Equal entries are not always repeated.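 Cells were grown in 96-well plates and exposed to each compound for 48 hours at five concentrations; endpoints were interpolated linearly between bracketing concentrations, or set to the highest concentration if not reached. GI50 is the concentration that inhibits growth by half. TGI marks complete inhibition of growth.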 Where a SMILES comes first, the peptide text is derived from it. [ ]: non-standard residue; d: D form. The star is where a group is joined. ξ: configuration not given here. X16 = COC1=CC(=O)N(C(=O)C(O*)C(C)C)C1Cc1ccccc1; ξNMe2Val = CC(C)C(C(=O)*)N(C)C; NMeV = CN[CH](C(=O)O)C(C)C

Columns and labels:
Experiment in all cases: NCI tumour cell line growth inhibition, 48 h
TK-10 renal = test system: TK-10 renal
NCI-H226 lung = test system: NCI-H226 lung
NCI-H23 lung = test system: NCI-H23 lung
SF-295 CNS = test system: SF-295 CNS
DLD-1 colon = test system: DLD-1 colon
U251 CNS = test system: U251 CNS
HOP-92 NSCLC = test system: HOP-92 NSCLC
SK-MEL-2 melanoma = test system: SK-MEL-2 melanoma
M14 melanoma = test system: M14 melanoma
PC-3 prostate = test system: PC-3 prostate

SMILES | TGI (TK-10 renal) [µM] | TGI (NCI-H226 lung) [µM] | TGI (NCI-H23 lung) | TGI (SF-295 CNS) | TGI (DLD-1 colon) [µM] | TGI (U251 CNS) [µM] | TGI (HOP-92 NSCLC) [µM] | TGI (SK-MEL-2 melanoma) [µM] | TGI (M14 melanoma) [µM] | GI50 (NCI-H226 lung) [µM] | GI50 (NCI-H23 lung) [µM] | GI50 (SF-295 CNS) [µM] | GI50 (DLD-1 colon) [µM] | GI50 (U251 CNS) [µM] | GI50 (HOP-92 NSCLC) [µM] | GI50 (SK-MEL-2 melanoma) [µM] | TGI (PC-3 prostate) [µM]
OCC(O)COc1ccc(Br)cc1 (configuration not stated) | > 100 | > 100 | > 100 µM | > 100 µM | > 100 | > 100 | > 100 | > 100 | > 100 | – | – | – | – | – | – | – | –
COC1=CC(=O)N(C(=O)C(OC(=O)C2CCCN2C(=O)C2CCCN2C(=O)C(C(C)C)N(C)C(=O)C(NC(=O)C(C(C)C)N(C)C)C(C)C)C(C)C)C1Cc1ccccc1 (configuration not stated) (ξNMe2Val-V[NMeV]PP-X16; configuration not given here) | – | 1.54 | 0.0145 µM | 0.0074 µM and 0.00436 µM | > 4 | 0.0109 | – | – | – | 0.000406 | < 0.0004 | < 0.0004 | < 0.0004 | < 0.0004 | 0.000954 | < 0.0004 | –
COC1/C=C\C=C(/C)C(=O)NC2=CC(=O)C(NCCCl)=C(CC(C)CC(OC)C(O)C(C)/C=C(/C)C1OC(N)=O)C2=O (configuration not stated) | 14.3 | 8.62 | 1.27 µM | 8.39 µM | 11.6 | 4.14 | 18.6 | 2.15 | 2.48 | – | – | – | – | – | – | – | 8.84
Oc1c(Cl)c2nccnc2c2ccccc12 | > 100 | > 100 | > 100 µM | > 100 µM | > 100 | > 100 | > 100 | > 100 | > 100 | – | – | – | – | – | – | – | –
C=C1CC2CC[C@@]34C[C@@H]5O[C@@H]6C(O[C@H]7CC[C@H](CC(=O)OC8[C@@H](C)C9OC%10C[C@]%11(C[C@@H]%12O[C@@]%13(C[C@@H](C)[C@@H]%12O%11)C[C@H](C)[C@@H]%11OC%12CC(C(O)CO)OC%12C[C@@H]%11O%13)OC%10CC9O[C@H]8C[C@H]8O[C@@H](CC[C@@H]1O2)C[C@@H](C)C8=C)O[C@@H]7[C@@H]6O3)C5O4 (some centres not stated) | – | – | 0.0068 µM and 0.00198 µM | 0.00266 µM and 0.000528 µM | > 1.48 | 0.000191 | > 1.48 | 0.00727 | 0.00675 | < 0.000148 | < 0.000148 | < 0.000148 | < 0.000148 | < 0.000148 | < 0.000148 | – | –
c1ccc2[nH]c(-c3nc4ccccc4o3)nc2c1 | > 100 | > 100 | > 100 µM | > 100 µM | > 100 | > 100 | > 100 | > 100 | > 100 | – | – | – | – | – | – | – | –
Cc1ccc(OP2(=O)Oc3ccc4ccccc4c3CN2c2ccc(Cl)cc2)cc1C (configuration not stated) | – | > 100 | > 100 µM | > 100 µM | > 100 | > 100 | > 100 | > 100 | – | – | – | – | – | – | – | – | –
COc1ccc2c(c1O)-c1c(OC)c(OC)cc3c1[C@H](C2)[N+](C)(C)CC3 | > 100 | > 100 | > 100 µM | > 100 µM | – | > 100 | > 100 | > 100 | > 100 | – | – | – | – | – | – | – | > 100
CCOn1cc(C[C@@]2(O)C(=O)OC3[C@@H](O)CO[C@@]32O)c2ccccc21 (some centres not stated) | > 100 | > 100 | > 100 µM | > 100 µM | – | > 100 | > 100 | > 100 | > 100 | – | – | – | – | – | – | – | > 100
Oc1c(OCc2nnc(CCCCCCCCc3nnc(COc4ccc5ccccc5c4O)n3Nc3ccccc3)n2Nc2ccccc2)ccc2ccccc12 | > 64.7 | 24.1 | 35.2 µM | 13.9 µM | – | 25.5 | 32.3 | 27.6 | 10.9 | – | – | – | – | – | – | – | 19.2
Nc1cc2c(cc1[N+](=O)[O-])[nH]c1c(-c3ccccc3)nccc12 | – | 56.5 | 39.5 µM | 53.4 µM | > 76.5 | 55.4 | 42.7 | 38.2 | – | – | – | – | – | – | – | – | –
CSc1nc2c(c(N(C)C)n1)C=Nn1c(nc3ccccc31)S2 | > 100 | > 100 | > 100 µM | > 100 µM | – | > 100 | 89.4 | > 100 | > 100 | – | – | – | – | – | – | – | > 100
On1c(-c2ccccc2)c(-c2c(-c3ccccc3)n(O)c3ccccc23)c2ccccc21 | > 100 | 64.7 | 90.1 µM | 61.9 µM | > 100 | > 100 | – | 59.2 | – | – | – | – | – | – | – | – | –
O=C(Cc1ccc(Cl)c(Cl)c1)NCCCN1CCN(CCCN2CCCCC2)CC1 | 32.3 | 42.4 | 42.6 µM | 37.7 µM | – | 32.5 | 24.8 | 21.6 | 43.1 | – | – | – | – | – | – | – | 40.7
CCOC(=O)C1(Cc2ccc(C)cc2)Cc2ccc(C)cc2C1=O (configuration not stated) | > 100 | > 92.4 | > 94.7 µM | > 86.5 µM | – | 35.6 | > 100 | 32.9 | 47.3 | – | – | – | – | – | – | – | > 100
O=C(CCSC(CC(=O)c1ccc(Cl)cc1)c1ccc(Cl)cc1)Nc1ccc(Cl)cc1 (configuration not stated) | 29.9 | 41.5 | 30.4 µM | 25.8 µM | – | 21.1 | 32.9 | 28.9 | 28.2 | – | – | – | – | – | – | – | 27.1
O=c1[nH]cnc2c1nnn2CCCn1nnc2c(=O)[nH]cnc21 | > 100 | > 100 | > 100 µM | > 100 µM | > 100 | > 100 | > 100 | > 100 | > 100 | – | – | – | – | – | – | – | –
O=C1N[C@H]2c3c(Cl)sc(Cl)c3C(=O)[C@H]2O1 | > 100 | 42.3 | 29 µM | 34.6 µM | – | 15.7 | 41.6 | > 59.9 | 52.6 | – | – | – | – | – | – | – | > 62.5
COC(=O)C1Cc2c(C)cccc2C1=O (configuration not stated) | > 100 | > 100 | > 100 µM | > 100 µM | – | > 100 | > 100 | > 100 | > 100 | – | – | – | – | – | – | – | > 100
CN(NC(=O)c1ccco1)C1=NCCCCN1 | > 100 | > 100 | > 100 µM | > 100 µM | – | > 100 | > 100 | > 100 | > 100 | – | – | – | – | – | – | – | > 100
c1cnc2c(c1)-n1cccc1C1(CCOCC1)NN2 | > 100 | > 100 | > 100 µM | > 100 µM | > 100 | > 100 | > 100 | > 100 | > 100 | – | – | – | – | – | – | – | –
COc1ccc(C2CC(c3cc4c(C)c(C(=O)c5ccccc5)oc4cc3O)=Nc3ccccc3S2)cc1OC (configuration not stated) | > 100 | > 100 | > 100 µM | > 100 µM | – | > 100 | > 73.7 | > 100 | > 100 | – | – | – | – | – | – | – | > 100
[N-]=N[N+]#I1OC(C(F)(F)F)(C(F)(F)F)c2ccccc21 | 32 | 54.1 | 36.8 µM | 31.2 µM | – | 33.8 | 27 | 32 | > 100 | – | – | – | – | – | – | – | 30.1
CCC1(O)C=CC(=O)C=C1 | 45.6 | 75.3 | 69.3 µM | > 100 µM | – | 34.9 | 75.9 | > 100 | 40.4 | – | – | – | – | – | – | – | > 62.2
O=C(NCCNCCO)N/N=C/c1cccc([N+](=O)[O-])c1 | > 100 | > 100 | > 100 µM | > 100 µM | > 100 | > 100 | > 100 | > 100 | > 100 | – | – | – | – | – | – | – | –
C1=C2SSC3=CC=C(SSc4ccc(s4)SSC4=CC=C(SSC(=C1)S2)S4)S3 | > 100 | > 100 | > 100 µM | > 100 µM | – | > 100 | > 100 | > 100 | > 100 | – | – | – | – | – | – | – | > 100
CC1=C/C(=C(\c2ccc(N(C)C)cc2)c2ccc([N+](C)(C)C)cc2)C=CC1=[N+](C)C | 14.9 | 33.8 | 26.6 µM | 19.3 µM | 45.3 | 17.6 | 30.6 | 35 | 43 | – | – | – | – | – | – | – | –
C=C/C(C)=C/[C@H](C)C(=O)C[C@H](O)CC1CC(=O)NC(=O)C1 | – | > 100 | > 100 µM | > 100 µM | > 100 | > 100 | > 89.6 | > 100 | – | – | – | – | – | – | – | – | –
